pIC50, pKi: −log10 of the molar value. Activity calls are given as the source filed them. The calls are words filed in the database; no cut-off is given here.
Assays:
Acetylcholinesterase [1] = target: T1, Acetylcholinesterase (Electrophorus electricus, UniProt O42275); assay: Inhibition of Electrophorus electricus AChE using acetylthiocholine iodide as substrate measured after 15 mins by Ellman's method
[2] = Inhibition of Cu2+-mediated aggregation of human amyloid beta (1 to 42 residues) at 25 uM after 24 hrs by thioflavin T-based fluorometric assay relative to control; assay type: functional
PC-12 [3] = assay: Neuroprotective activity against H2O2-induced damage in rat PC12 cells assessed as increase in cell viability at 1 to 50 uM pretreated for 2 hrs followed by H2O2 challenge measured after 24 hrs by MTT assay; assay type: functional, cell-based
[4] = Permeability of compound at 100 ug/ml after 18 hrs by PAMPA; assay type: physicochemical; settings: read-out: permeability
PC-12 [5] = assay: Cytotoxicity against rat PC12 cells at <50 uM measured after 48 hrs by MTT assay; assay type: cell-based; settings: pc-12, 48 h
PC-12 [6] = assay: Neuroprotective activity against H2O2-induced damage in rat PC12 cells assessed as reduction in LDH release at 0.1 to 50 uM pretreated for 2 hrs followed by H2O2 challenge measured after 24 hrs; assay type: functional, cell-based
[7] = target: Amyloid-beta precursor protein (Homo sapiens) (UniProt P05067); assay: Inhibition of self-induced aggregation of HFIP-treated human amyloid beta (1 to 42 residues) at 25 uM after 24 hrs by thioflavin T-based fluorometric assay relative to control
[8] = Metal chelating activity assessed as mole fraction of compound required to show 2:1 stoichiometry for Cu2+-compound complex at 37.5 uM after 30 mins by UV-vis spectrophotometric method; assay type: functional
[9] = Metal chelating activity assessed as compound-Zn2+ complex formation at 37.5 uM in presence of ZnCl2 after 30 mins by UV-visible spectrophotometric analysis; assay type: functional
[10] = Metal chelating activity assessed as compound-Fe2+ complex formation at 37.5 uM in presence of FeSO4 after 30 mins by UV-visible spectrophotometric analysis; assay type: functional
[11] = Metal chelating activity assessed as compound-Cu2+ complex formation at 37.5 uM in presence of CuCl2 after 30 mins by UV-visible spectrophotometric analysis; assay type: functional
[12] = target: T2, Amine oxidase [flavin-containing] A (Homo sapiens, UniProt P21397); assay: Inhibition of recombinant human MAO-A expressed in baculovirus infected BTI insect cells at 10 uM using kynuramine as substrate incubated for 30 mins by fluorescence assay relative to control; settings: 0.5 h
T2 sequence (P21397 whole entry): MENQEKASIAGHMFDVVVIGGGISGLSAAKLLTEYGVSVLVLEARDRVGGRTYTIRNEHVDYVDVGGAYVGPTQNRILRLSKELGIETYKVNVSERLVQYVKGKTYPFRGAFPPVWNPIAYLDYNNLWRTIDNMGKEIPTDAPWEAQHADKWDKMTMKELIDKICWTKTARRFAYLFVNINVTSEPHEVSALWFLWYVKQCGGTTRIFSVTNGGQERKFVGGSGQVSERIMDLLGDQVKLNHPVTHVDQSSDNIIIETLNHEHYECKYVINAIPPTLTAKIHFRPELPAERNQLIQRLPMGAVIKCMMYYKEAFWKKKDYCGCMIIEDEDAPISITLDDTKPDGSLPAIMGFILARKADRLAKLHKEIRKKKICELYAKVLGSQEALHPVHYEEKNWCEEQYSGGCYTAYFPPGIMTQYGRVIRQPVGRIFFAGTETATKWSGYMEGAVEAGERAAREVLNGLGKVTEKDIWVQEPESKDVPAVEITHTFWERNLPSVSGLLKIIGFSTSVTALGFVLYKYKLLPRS

Acetylcholinesterase [13] = target: T3, Acetylcholinesterase (Rattus norvegicus, UniProt P37136); assay: Inhibition of AChE in rat brain cortex homogenates using acetylthiocholine iodide as substrate in presence of BuChE inhibitor tetraisopropyl pyrophosphoramide measured after 15 mins by Ellman's method
T3 sequence (P37136 whole entry): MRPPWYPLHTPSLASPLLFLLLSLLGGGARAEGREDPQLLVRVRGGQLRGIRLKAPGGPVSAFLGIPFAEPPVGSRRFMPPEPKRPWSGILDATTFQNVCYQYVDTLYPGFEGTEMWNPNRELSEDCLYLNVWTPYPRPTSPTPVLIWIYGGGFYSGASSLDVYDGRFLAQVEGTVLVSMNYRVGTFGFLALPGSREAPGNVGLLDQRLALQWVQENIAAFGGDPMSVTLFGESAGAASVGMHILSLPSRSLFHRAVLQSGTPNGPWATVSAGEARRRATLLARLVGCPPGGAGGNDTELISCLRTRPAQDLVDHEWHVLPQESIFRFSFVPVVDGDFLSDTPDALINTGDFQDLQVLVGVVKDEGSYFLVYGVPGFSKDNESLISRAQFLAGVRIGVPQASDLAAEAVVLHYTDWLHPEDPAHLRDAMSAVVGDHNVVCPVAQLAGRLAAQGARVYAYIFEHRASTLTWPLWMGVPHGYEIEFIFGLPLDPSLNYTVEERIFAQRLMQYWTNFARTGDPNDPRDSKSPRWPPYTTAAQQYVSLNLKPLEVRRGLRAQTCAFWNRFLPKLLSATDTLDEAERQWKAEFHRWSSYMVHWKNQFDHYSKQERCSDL

[14] = target: butyrylcholinesterase (BuChE) (Rattus norvegicus, UniProt Q9JKC1); assay: Inhibition of BuChE in rat serum at 50 uM using butyrylthiocholine as substrate measured after 15 mins by Ellman's method relative to control; settings: probe butyrylthiocholine
Acetylcholinesterase [15] = target: T1, Acetylcholinesterase; assay: Mixed-type inhibition of Electrophorus electricus AChE pretreated for 15 mins followed by varying levels of acetylthiocholine iodide substrate addition by Lineweaver-Burk plot analysis
Acetylcholinesterase [16] = target: Acetylcholinesterase (Homo sapiens, UniProt P22303); assay: Inhibition of human erythrocyte AChE using acetylthiocholine iodide as substrate measured after 15 mins by Ellman's method
[17] = Metal chelating activity assessed as compound-Al3+ complex formation at 37.5 uM in presence of AlCl3 after 30 mins by UV-visible spectrophotometric analysis; assay type: functional
[18] = Antioxidant activity assessed as inhibition of AAPH-induced peroxyl radical generation at 5 uM measured as trolox equivalent preincubated for 15 mins followed by AAPH addition measured every 60 secs for 90 mins by ORAC-FL assay; assay type: functional
[19] = target: T4, Amine oxidase [flavin-containing] B (Homo sapiens, UniProt P27338); assay: Inhibition of recombinant human MAO-B expressed in baculovirus infected BTI insect cells at 10 uM using kynuramine as substrate incubated for 30 mins by fluorescence assay relative to control; settings: 0.5 h
T4 sequence (P27338 whole entry): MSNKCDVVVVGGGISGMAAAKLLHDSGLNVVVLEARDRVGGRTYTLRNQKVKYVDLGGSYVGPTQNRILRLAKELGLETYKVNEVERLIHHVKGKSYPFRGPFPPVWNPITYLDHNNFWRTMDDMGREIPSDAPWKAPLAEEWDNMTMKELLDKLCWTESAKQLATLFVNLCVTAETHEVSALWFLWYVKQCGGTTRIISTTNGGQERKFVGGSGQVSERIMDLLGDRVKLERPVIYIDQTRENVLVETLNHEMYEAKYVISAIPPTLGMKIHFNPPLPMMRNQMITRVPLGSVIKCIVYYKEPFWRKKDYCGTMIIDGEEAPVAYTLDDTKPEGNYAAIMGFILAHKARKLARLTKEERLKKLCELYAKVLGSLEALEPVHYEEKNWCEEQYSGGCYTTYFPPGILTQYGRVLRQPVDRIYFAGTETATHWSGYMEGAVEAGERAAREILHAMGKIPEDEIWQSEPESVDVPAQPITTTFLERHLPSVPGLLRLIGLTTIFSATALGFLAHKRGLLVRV

T1 sequence (O42275 whole entry, the tested form may be a part): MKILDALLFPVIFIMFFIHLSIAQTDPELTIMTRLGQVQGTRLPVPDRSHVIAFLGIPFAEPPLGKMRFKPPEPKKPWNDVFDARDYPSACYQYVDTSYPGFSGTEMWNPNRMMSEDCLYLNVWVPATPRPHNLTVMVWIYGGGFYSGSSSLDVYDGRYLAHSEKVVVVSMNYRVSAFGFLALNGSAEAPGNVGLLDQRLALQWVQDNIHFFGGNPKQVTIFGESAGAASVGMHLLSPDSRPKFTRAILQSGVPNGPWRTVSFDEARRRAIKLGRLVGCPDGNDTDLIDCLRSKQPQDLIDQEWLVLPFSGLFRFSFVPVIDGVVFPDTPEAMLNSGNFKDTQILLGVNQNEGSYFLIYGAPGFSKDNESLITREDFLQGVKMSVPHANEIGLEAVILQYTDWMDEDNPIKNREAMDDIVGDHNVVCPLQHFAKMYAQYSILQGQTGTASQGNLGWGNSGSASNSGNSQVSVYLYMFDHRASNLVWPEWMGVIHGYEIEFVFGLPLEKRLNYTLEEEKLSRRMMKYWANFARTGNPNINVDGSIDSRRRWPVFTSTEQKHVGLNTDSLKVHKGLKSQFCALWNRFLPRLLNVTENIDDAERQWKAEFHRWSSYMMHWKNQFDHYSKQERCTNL
butyrylcholinesterase (BuChE), sequence (Q9JKC1 whole entry): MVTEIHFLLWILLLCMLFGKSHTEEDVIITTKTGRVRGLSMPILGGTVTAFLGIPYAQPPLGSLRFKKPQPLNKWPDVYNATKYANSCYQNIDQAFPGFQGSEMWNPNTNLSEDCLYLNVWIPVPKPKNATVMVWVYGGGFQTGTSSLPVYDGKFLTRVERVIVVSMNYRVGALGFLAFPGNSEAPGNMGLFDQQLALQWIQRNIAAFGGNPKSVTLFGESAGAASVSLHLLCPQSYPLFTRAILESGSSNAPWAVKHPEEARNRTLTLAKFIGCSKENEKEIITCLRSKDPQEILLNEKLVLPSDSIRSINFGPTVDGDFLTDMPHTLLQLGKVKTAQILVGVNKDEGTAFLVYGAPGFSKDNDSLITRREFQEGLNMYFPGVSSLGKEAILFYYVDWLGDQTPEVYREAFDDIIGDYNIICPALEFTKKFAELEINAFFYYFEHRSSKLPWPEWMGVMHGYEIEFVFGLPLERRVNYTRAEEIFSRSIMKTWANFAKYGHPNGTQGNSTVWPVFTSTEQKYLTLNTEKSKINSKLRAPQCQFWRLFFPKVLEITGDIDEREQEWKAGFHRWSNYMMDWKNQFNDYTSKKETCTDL
Acetylcholinesterase (Homo sapiens, UniProt P22303), sequence (P22303 whole entry): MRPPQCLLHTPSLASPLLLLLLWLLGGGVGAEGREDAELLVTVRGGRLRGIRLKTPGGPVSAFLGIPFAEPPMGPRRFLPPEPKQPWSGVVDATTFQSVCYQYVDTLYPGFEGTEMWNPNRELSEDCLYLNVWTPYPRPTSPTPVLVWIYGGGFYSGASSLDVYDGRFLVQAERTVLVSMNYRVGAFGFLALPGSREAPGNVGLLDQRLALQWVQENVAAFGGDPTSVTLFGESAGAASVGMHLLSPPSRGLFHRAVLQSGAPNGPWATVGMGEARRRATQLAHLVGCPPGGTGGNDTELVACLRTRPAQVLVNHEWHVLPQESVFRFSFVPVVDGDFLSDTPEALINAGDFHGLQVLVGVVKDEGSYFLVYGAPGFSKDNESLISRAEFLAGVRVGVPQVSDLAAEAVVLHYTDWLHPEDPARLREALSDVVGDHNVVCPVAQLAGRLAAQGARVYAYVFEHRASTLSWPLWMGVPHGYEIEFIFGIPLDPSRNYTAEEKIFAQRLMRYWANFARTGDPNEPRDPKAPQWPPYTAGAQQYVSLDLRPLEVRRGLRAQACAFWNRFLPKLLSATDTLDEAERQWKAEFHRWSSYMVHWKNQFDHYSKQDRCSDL
Amyloid-beta precursor protein (Homo sapiens), sequence (P05067 whole entry, the tested form may be a part): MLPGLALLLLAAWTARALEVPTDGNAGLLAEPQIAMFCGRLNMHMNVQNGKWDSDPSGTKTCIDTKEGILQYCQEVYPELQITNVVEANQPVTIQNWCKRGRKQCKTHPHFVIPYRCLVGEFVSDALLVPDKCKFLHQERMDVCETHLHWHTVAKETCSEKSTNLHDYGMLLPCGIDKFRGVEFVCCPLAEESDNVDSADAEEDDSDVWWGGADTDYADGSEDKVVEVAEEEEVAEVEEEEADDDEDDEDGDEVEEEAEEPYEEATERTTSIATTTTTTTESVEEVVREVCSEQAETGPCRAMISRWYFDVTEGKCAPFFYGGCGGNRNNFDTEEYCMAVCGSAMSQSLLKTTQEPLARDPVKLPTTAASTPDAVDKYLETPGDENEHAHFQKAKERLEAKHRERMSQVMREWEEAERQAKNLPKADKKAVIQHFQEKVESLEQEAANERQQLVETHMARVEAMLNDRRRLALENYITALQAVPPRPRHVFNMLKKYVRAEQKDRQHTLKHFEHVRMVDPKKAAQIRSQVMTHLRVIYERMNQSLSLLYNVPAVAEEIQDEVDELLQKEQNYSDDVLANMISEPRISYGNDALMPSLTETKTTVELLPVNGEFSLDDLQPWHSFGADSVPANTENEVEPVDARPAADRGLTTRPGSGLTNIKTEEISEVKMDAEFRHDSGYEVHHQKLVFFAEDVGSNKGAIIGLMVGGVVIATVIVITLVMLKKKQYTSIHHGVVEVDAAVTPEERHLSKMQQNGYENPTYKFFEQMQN

COc1cc2c(cc1OC)C(=O)/C(=C/c1ccc(CN3CCCCC3)c(O)c1)O2
pIC50 (Acetylcholinesterase [1]): 7.67 | inhibition [2]: 45.1% | Activity (PC-12 [3]): Active | Papp at 18 h, 100 ug/ml [4]: 13.5 ×10⁻⁶ cm/s | Activity (PC-12 [5]): Non-Toxic | Activity (PC-12 [6]): Active | inhibition [7]: 58.1% | Activity [8]: 0.5 molar ratio | Activity [9]: inactive | Activity [10]: Active | Activity [11]: Active | inhibition at 10 µM [12]: 15.3% | pIC50 (Acetylcholinesterase [13]): 8.06 | inhibition at 0.25 h, 50 µM [14]: 12.9% | pKi (Acetylcholinesterase [15]): 7.92 | pIC50 (Acetylcholinesterase [16]): 7.43 | Activity [17]: Active | Activity [18]: 1.66 equiv | inhibition at 10 µM [19]: 32%

Source: ChEMBL document CHEMBL4002586, “Aurone Mannich base derivatives as promising multifunctional agents with acetylcholinesterase inhibition, anti-β-amyloid aggragation and neuroprotective properties for the treatment of Alzheimer's disease” (Eur J Med Chem, 2017)
